Laboratory results taken from US20100266567A1, “USE OF URATE OXIDASE FOR THE TREATMENT OR PROPHYLAXIS OF DISORDERS OR INDIRECT SEQUELAE OF THE HEART CAUSED BY ISCHEMIC OR REPERFUSION EVENTS” (sanofi-aventis, priority 2007, published 2010).
One block for each molecule: values may come before it.

Key:
[1] = tested on: isolated rat hearts with global ischemia and reperfusion; experiment: Isolated working rat heart with global ischemia and reperfusion: coronary flow and contractility
From the text: Effects on Coronary Flow and Contractility of the Heart with Global Ischemia and Reperfusion: […]

isolated rat hearts = experiment: Isolated working rat heart: coronary flow and contractility
From the text: As biological materials the isolated hearts of male Wistar rats were used which were purchased from our Laboratory Animal Science and Welfare (LASW). The heart function (coronary flow and contractility) was investigated on the “Isolated Working Heart” model as previously described (Itter G et al., Laboratory Animals (2005) 39; 178-193). The hearts were first perfused according to Langendorff's method with an oxygenated (95% O2, 5% CO2) noncirculating Krebs-Henseleit solution of the following compositions (mmol/L): NaCl, 118; KCl, 4.7; CaCl2, 2.5; MgSO4, 1.6; NaHCO3, 24.9; KH2PO4, 1.2; glucose, 5.5; Na-pyruvate, 2.0. A catheter placed into the pulmonary artery drained the coronary effluent perfusate that was collected for determination of coronary flow and venous PO2 measurements. The left atrium was cannulated by an incision of the left auricle. After a 15-minute equilibration period at a fixed perfusion pressure of 60 mmHg, the heart was switched into the working mode at a fixed filling pressure of 11 mmHg. Coronary flow (CF) and pressure signals (dP/dtmax) were sampled at 500 Hz, averaged every 2 seconds.
High rasburicase concentrations were tested in combination with different uric acid concentrations on isolated working rat hearts for their possible adverse cardiac effects caused by the generated hydrogenperoxide (H2O2).

[2] = addition of ascorbic acid 1 mM to Rasb 50 μg/mL + UA 30 mg/L
[3] = UA 15 mg/L (Rasb 50 μg/mL where present), 1 min before ischemia
[4] = UA 15 mg/L (Rasb 50 μg/mL where present), 5 min before ischemia
[5] = UA 15 mg/L (Rasb 50 μg/mL where present), Global Ischemia
[6] = UA 15 mg/L (Rasb 50 μg/mL where present), Reperf. 5 min after Ischemia
[7] = UA 15 mg/L (Rasb 50 μg/mL where present), Reperf. 10 min after Ischemia
[8] = UA 15 mg/L (Rasb 50 μg/mL where present), Reperf. 15 min after Ischemia
[9] = UA 30 mg/L (Rasb 50 μg/mL where present), 1 min before ischemia, Table 5
[10] = UA 30 mg/L (Rasb 50 μg/mL where present), 5 min before ischemia, Table 5
[11] = UA 30 mg/L (Rasb 50 μg/mL where present), Global Ischemia, Table 5
[12] = UA 30 mg/L (Rasb 50 μg/mL where present), Reperf. 5 min after Ischemia, Table 5
[13] = UA 30 mg/L (Rasb 50 μg/mL where present), Reperf. 10 min after Ischemia, Table 5
[14] = UA 30 mg/L (Rasb 50 μg/mL where present), Reperf. 15 min after Ischemia, Table 5

Molecule: O=C1O[C@H]([C@@H](O)CO)C(O)=C1O [ascorbic acid, Ascorbic acid]
contractility after ischemia/reperfusion (in words) [1, 2]: further improvement
coronary flow after ischemia/reperfusion (in words) [1, 2]: normalization

Molecule: OO [H2O2, hydrogenperoxide]
contractility (dP/dtmax) (isolated rat hearts; H2O2 10 μM, n = 4): 4774 ± 185 mmHg/s
coronary flow (CF) (isolated rat hearts; H2O2 10 μM, n = 4): 13.89 ± 0.55 mL/min
contractility (dP/dtmax) (isolated rat hearts; H2O2 30 μM, n = 4): 4469 ± 167 mmHg/s
coronary flow (CF) (isolated rat hearts; H2O2 30 μM, n = 4): 15.21 ± 1 mL/min
contractility (dP/dtmax) (isolated rat hearts; H2O2 100 μM, n = 4): 4573 ± 268 mmHg/s
coronary flow (CF) (isolated rat hearts; H2O2 100 μM, n = 4): 15.7 ± 1.3 mL/min
contractility (dP/dtmax) (isolated rat hearts; H2O2 200 μM, n = 4): 1698 ± 69 mmHg/s
coronary flow (CF) (isolated rat hearts; H2O2 200 μM, n = 4): 10.42 ± 0.3 mL/min
effect on coronary flow and contractility (in words) (isolated rat hearts; concentrations higher than 100 μM H2O2): strongly reduced

contractility (dP/dtmax) (isolated rat hearts; male, Wistar, rat, 6 mg/L): 3867 ± 327 mmHg/s
coronary flow (CF) (isolated rat hearts; male, Wistar, rat, 6 mg/L): 13.51 ± 1.02 mL/min
Molecule: O=c1[nH]c(=O)c2[nH]c(=O)[nH]c2[nH]1 [Uric Acid, Uric acid]
contractility (dP/dtmax) [1, 3]: 3608 ± 318 mmHg/s
coronary flow (CF) [1, 3]: 12.82 ± 0.75 mL/min
contractility (dP/dtmax) [1, 4]: 3600 ± 250 mmHg/s
coronary flow (CF) [1, 4]: 13.28 ± 0.7 mL/min
contractility (dP/dtmax) [1, 5]: 61 ± 1 mmHg/s
coronary flow (CF) [1, 5]: 0.38 ± 0.06 mL/min
contractility (dP/dtmax) [1, 6]: 1057 ± 496 mmHg/s
coronary flow (CF) [1, 6]: 4.47 ± 1.69 mL/min
contractility (dP/dtmax) [1, 7]: 1284 ± 667 mmHg/s
coronary flow (CF) [1, 7]: 4.71 ± 1.86 mL/min
contractility (dP/dtmax) [1, 8]: 1403 ± 736 mmHg/s
coronary flow (CF) [1, 8]: 4.73 ± 1.85 mL/min
contractility (dP/dtmax) [1, 9]: 4017 ± 437 mmHg/s
coronary flow (CF) [1, 9]: 13.11 ± 0.88 mL/min
contractility (dP/dtmax) [1, 10]: 4020 ± 350 mmHg/s
coronary flow (CF) [1, 10]: 13.33 ± 0.7 mL/min
contractility (dP/dtmax) [1, 11]: 59 ± 2 mmHg/s
coronary flow (CF) [1, 11]: 0.31 ± 0.02 mL/min
contractility (dP/dtmax) [1, 12]: 2224 ± 418 mmHg/s
coronary flow (CF) [1, 12]: 8.34 ± 1.88 mL/min
contractility (dP/dtmax) [1, 13]: 2898 ± 314 mmHg/s
coronary flow (CF) [1, 13]: 9.16 ± 1.29 mL/min
contractility (dP/dtmax) [1, 14]: 3192 ± 273 mmHg/s
coronary flow (CF) [1, 14]: 9.25 ± 0.63 mL/min

B1: rasburicase (protein, listed as Aspergillus flavus)
chain: SAVKAARYGKDNVRVYKVHKDEKTGVQTVYEMTVCVLLEGEIETSYTKADNSVIVATDSIKNTIYITAKQNPVTPPELFGSILGTHFIEKYNHIHAAHVNIVCHRWTRMDIDGKPHPHSFIRDSEEKRNVQVDVVEGKGIDIKSSLSGLTVLKSTNSQFWGFLRDEYTTLKETWDRILSTDVDATWQWKNFSGLQEVRSHVPKFDATWATAREVTLKTFAEDNSASVQATMYKMAEQILARQQLIETVEYSLPNKHYFEIDLSWHKGLQNTGKNAEVFAPQSDPNGLIKCTVGRSSLKSKL
modifications: homotetramer
notes: recombinant urate oxidase enzyme from genetically modified Saccharomyces cerevisiae with Aspergillus flavus cDNA
heart function (in words) ([1]; in the presence of uric acid, present prior and during ischemia/reperfusion): even improved
cardiodynamics after ischemia (in words) ([1]; ischemia/reperfusion experiments): even improved
recovery after ischemia/reperfusion (in words) ([1]; rasburicase 50 μg/mL in combination with uric acid 15 or 30 mg/L): concentration-dependently improved
